Assay results from patent publication US20190151283A1, “NON-STEROIDAL SELECTIVE GLUCOCORTICOID RECEPTOR AGONISTIC MODULATORS (SEGRAMs) AND USES THEREOF” (ASSOCIATION POUR LA RECHERCHE À L'IGBMC (ARI), priority 2017, published 2019).

Legend:
Male mice (DBA-1 strain) = assay: Collagen-induced arthritis (CIA); format: in vivo, mouse; details: for hind paw thickness at the ankle level: i.p. 1 mg/kg daily for 10 days (T0 to T10); for RNA transcripts of the pro-inflammatory genes expressed in the hind paws (IL-1β, IL-6, IL-17a, IL-17f, TNFα): q-RT-PCR, T10, 'but not' = not repressed
Method: Mice were treated with collagen to induce a Th17 rheumatoid arthritis-like inflammation as described by Inglis et al. (2007. Arthritis Res Ther. 9(5):R113) and Geboes et al. (2009. Arthritis Rheum. 60(2):390-5).
Male mice (DBA-1 strain) were subcutaneously-injected with 100 μg collagen per mouse on D0. The hind paw thickness at the ankle level was regularly measured with a caliper. When the ankle thickness had reached around 4 mm (T0, i.e., 30 to 50 days after the collagen injection on D0), mice were daily intraperitoneally-injected for 10 days (T0 to T10) with either vehicle (NaCl 0.9%), Dex, CpdX, CpdX(eA), CpdX(eB), CpdX-D3, CpdX-D3(eA) or CpdX-D3(eB) (1 mg/kg body weight diluted in NaCl 0.9%), and the hind paw thickness at the ankle level was daily measured with a caliper. Pictures of the hind paws were taken at days T0 and T10 (before and after the treatment with either Vehicle, Dex, CpdX, CpdX(eA), CpdX(eB), CpdX-D3, CpdX-D3(eA) or CpdX-D3(eB)), in order to assess the course of swelling.
RNA transcripts were extracted from whole hind paws of collagen-untreated and collagen-treated mice at T0 and T10. IL-1β, IL-6, IL-17a, IL-17f and TNFα transcripts were analyzed by q-RT-PCR.

Balb/C mouse ears = assay: Calcipotriol (MC 903)-induced atopic dermatitis-like inflammation; format: in vivo
Method: To investigate the CpdX anti-inflammatory activity in vivo, Balb/C mouse ears were topically treated with calcipotriol (MC 903, a vitamin D3 analogue), in order to induce an atopic dermatitis (AD)-like inflammation (Li et al., 2006. Proc Natl Acad Sci USA. 103[…].
Mice were treated for 14 days with MC 903, and then for 8 extra days (until D22) with either MC 903 alone (control), MC 903 and Dex, MC 903 and CpdX, MC 903 and CpdX(eA), MC 903 and CpdX(eB), MC 903 and CpdX-D3, MC 903 and CpdX-D3(eA) and MC 903 and CpdX-D3(eB).
At D23, RNA transcripts were extracted from mouse ear skin samples and the transcripts of 7 cytokines (MMP13, COX2, IL-1β, IL-6, IL-10, IL-13 and TSLP) were analyzed by q-RT-PCR. Ear skin was harvested and histological (with H&E staining) and immunohistochemical (with anti-TSLP antibodies) analyses were carried out.

B6 male mice [1] = assay: Organ weights (thymus, spleen, adrenal gland, kidney) after three-month treatment; format: in vivo, mouse; details: s.c. 1 mg/kg daily, three months
Method: B6 male mice (8-week-old) were daily subjected for three months to a subcutaneous injection of either vehicle (NaCl 0.9%), Dex, CpdX, CpdX(eA), CpdX(eB), CpdX-D3, CpdX-D3(eA) or CpdX-D3(eB) (1 mg/kg body weight, diluted in vehicle). Following these treatments, four organs (thymus, spleen, adrenal gland and kidney) were harvested and weighted.

B6 male mice [2] = assay: Insulin level, insulin tolerance test and liver insulin signalling after three-month treatment; format: in vivo, mouse; details: for insulin resistance: three months, conclusion
Method: B6 male mice (8-week-old) were subjected daily for three months to a subcutaneous injection of either vehicle (NaCl 0.9%), Dex, CpdX, CpdX(eA), CpdX(eB), CpdX-D3, CpdX-D3(eA) or CpdX-D3(eB) (1 mg/kg body weight, diluted in vehicle). After three months, the blood was collected at 10 a.m. by retro-orbital puncture in lithium-heparin coated vials, and the plasmatic level of insulin was determined.
For the intraperitoneal insulin tolerance test (IPITT), mice were fasted for 6 hours before test. The blood glucose concentration was measured both before (T0) and during a one-hour period after insulin i.p. injection (0.75 U/kg body weight).
Following this three-month treatment, liver samples were harvested and lysed in the RIPA buffer (20 mM Tris pH 8, 150 mM NaCl, 10% glycerol, 1% NP-40 and 2 mM EDTA). Antibodies from Cell Signaling were used to assess by Western-Blotting the relative level of p-IRS1 (S318), IRS-1, p-AKT (S473) and AKT.

mice = assay: House dust mite (HDM)-induced asthma-like allergic lung inflammation; format: in vivo, mouse; details: for total number of BAL cells, eosinophils and lymphocytes: 0.5 mg/kg on D29-D31, BAL on D32, vs control group; for peribronchiolar and perivascular inflammatory cell infiltration: histology of lung paraffin sections; for expressions of IL-1β, IL-6, IL-4, IL-5, IL-13, Eotaxin and CCL4 (pro-inflammatory genes) in lung samples / HDM-induced airway hyperresponsiveness (AHR), airway resistance and elastance: D32; for HDM-induced airway hyperresponsiveness (AHR), airway resistance and elastance: response to methacholine 50 mg/mL
Method: Glucocorticoids have been (Pearlman et al., 1997. Ann Allergy Asthma Immunol. 78(4):356-62), and are still, widely used in asthma therapy. In order to investigate the possible CpdX anti-inflammatory activity in vivo, mice were sensitized and challenged with either ovalbumin (OVA) or house dust mite (HDM) to induce an asthma-like allergic lung inflammation.
Mice were intranasally sensitized with 1 μg HDM from DO to D4, and further intranasally sensitized with 10 μg HDM on D14 and D21. Mice were then subdivided into eight groups, and on D29, D30 and D31, each mouse was again intranasally challenged with 1 μg HDM. The first seven groups received respectively 0.5 mg/kg of body weight of Dex, CpdX, CpdX(eA), CpdX(eB), CpdX-D3, CpdX-D3(eA) or CpdX-D3(eB), while the eighth group served as a control.
On D32, the airway responsiveness was invasively determined using a computer-controlled small animal ventilator (FlexVent® system, SCIREQ Technologies). Mice were anesthetized with xylazine (15 mg/kg, i.p.), followed 15 minutes later by an i.p. injection of pentobarbital sodium (54 mg/kg). An 18-gauge metal needle was then inserted into the trachea, each mouse was connected to the FlexVent® ventilator and quasi-sinusoidally ventilated with a tidal volume of 10 mL/kg at a frequency of 150 breaths/minute and a positive end-expiratory pressure of 2 cm H2O, in order to achieve a mean lung volume close to spontaneous breathing. After baseline measurement, mice were challenged for 10 seconds with a saline aerosol and, at 4.5-minute intervals, with 50 mg/mL methacholine. Airway resistance and elastance were expressed as cmH20·s/mL and cmH2O/mL respectively.
The lung allergic inflammation was assessed by examination of the bronchoalveolar lavage (BAL) fluid from each of these HDM-challenged mice. The total BAL cells, eosinophils, neutrophils, macrophages and lymphocytes were counted. RNA transcripts were extracted from lung samples. RNA transcripts of IL-1β, IL-6, IL-4, IL-5, IL-13, Eotaxin, CCL4, IL-10 and TNFα were analyzed by q-RT-PCR. Lung tissues were harvested and histological (with H&E staining) and immunohistochemical analyses were also carried out (with eosinophil-specific and neutrophil-specific antibodies).

Compound | spleen weight (B6 male mice [1]) | weight of the adrenal gland (B6 male mice [1]) | RNA transcripts of the pro-inflammatory genes expressed in the hind paws (IL-1β, IL-6, IL-17a, IL-17f, TNFα) (Male mice (DBA-1 strain)) | thymus apoptosis / thymus found (B6 male mice [1]) | insulin resistance (B6 male mice [2]) | total number of BAL cells, eosinophils and lymphocytes (mice) | peribronchiolar and perivascular inflammatory cell infiltration (mice) | expressions of IL-1β, IL-6, IL-4, IL-5, IL-13, Eotaxin and CCL4 (pro-inflammatory genes) in lung samples (mice; q-RT-PCR) | HDM-induced airway hyperresponsiveness (AHR), airway resistance and elastance (mice) | hind paw thickness at the ankle level (Male mice (DBA-1 strain); 1 mg/kg) | further results
COc1ccc(F)cc1C(C)(C)CC(O)(CNc1ccc2c(c1)COC2=O)C(F)(F)F (racemic) [CpdX, 5-[4-(5-fluoro-2-methoxyphenyl)-2-hydroxy-4-methyl-2-(trifluoromethyl)pentylamino]-isobenzofuran-1(3H)-one] | not decreased | increased | similarly repressed | did not result in any significant thymus apoptosis | does not induce | significantly decreased | strongly decreased | significantly and similarly decreased | similarly reduced |  | hind paw thickness at the ankle level (Male mice (DBA-1 strain)): rapid decrease; hind paw thickness, difference compared to the Dex treatment (Male mice (DBA-1 strain); student t test, FIG. 17 legend): not significant; MC 903-induced ear skin inflammation, histological analysis (Balb/C mouse ears; compared to the control): decreased; MC 903-induced transcription of pro-inflammatory genes (MMP13, COX2, IL-1β, IL-6, IL-10, IL-13 and TSLP) (Balb/C mouse ears; ear extracts, q-RT-PCR, D23): repressed, as efficiently as Dex; expression of the TSLP lymphokine in MC 903-treated mouse epidermis (Balb/C mouse ears; immunohistochemistry, data not shown): similarly strongly decreased; MC 903-induced skin inflammation (Balb/C mouse ears; topical, 8 days co-treatment with MC 903): significantly decreased; phosphorylated insulin receptor substrate 1 (p-IRS1 S318) in liver extracts (B6 male mice [2]; western-blot, 'but not' = no decrease): but not; number of neutrophils and macrophages in BAL (mice; 0.5 mg/kg on D29-D31, BAL on D32): No significant change; eosinophils in lung, immunohistochemistry (mice; eosinophil-specific antibodies, data not shown): decreased; neutrophils in lung, immunohistochemistry (mice; neutrophil-specific antibody, data not shown): no significant change; expressions of IL-10 and TNFα in lung samples (mice; q-RT-PCR, data not shown): not affected
COc1ccc(F)cc1C(C)(C)CC(O)(CNc1ccc2c(c1)COC2=O)C(F)(F)F (single isomer, unassigned) [CpdX(eA), 5-[4-(5-fluoro-2-methoxyphenyl)-2-hydroxy-4-methyl-2-(trifluoromethyl)pentylamino]-isobenzofuran-1(3H)-one] | not decreased | increased | similarly repressed | did not result in any significant thymus apoptosis | does not induce | efficiently decreased | decreased | efficiently decreased | reduced |  | 
COc1ccc(F)cc1C(C)(C)CC(O)(CNc1ccc2c(c1)COC2=O)C(F)(F)F (single isomer, unassigned) [CpdX(eB), 5-[4-(5-fluoro-2-methoxyphenyl)-2-hydroxy-4-methyl-2-(trifluoromethyl)pentylamino]-isobenzofuran-1(3H)-one] | not decreased | increased |  | did not result in any significant thymus apoptosis | does not induce |  |  |  |  | no such decrease | 

Continued, in another order:

spleen weight (B6 male mice [1]) | weight of the adrenal gland (B6 male mice [1]) | Compound | RNA transcripts of the pro-inflammatory genes expressed in the hind paws (IL-1β, IL-6, IL-17a, IL-17f, TNFα) (Male mice (DBA-1 strain)) | thymus apoptosis / thymus found (B6 male mice [1]) | insulin resistance (B6 male mice [2]) | total number of BAL cells, eosinophils and lymphocytes (mice) | peribronchiolar and perivascular inflammatory cell infiltration (mice) | expressions of IL-1β, IL-6, IL-4, IL-5, IL-13, Eotaxin and CCL4 (pro-inflammatory genes) in lung samples (mice; q-RT-PCR) | HDM-induced airway hyperresponsiveness (AHR), airway resistance and elastance (mice) | hind paw thickness at the ankle level (Male mice (DBA-1 strain); 1 mg/kg) | further results
not decreased | increased | [2H]C([2H])([2H])Oc1ccc(F)cc1C(C)(C)CC(O)(CNc1ccc2c(c1)COC2=O)C(F)(F)F (centres unmarked) [CpdX-D3(eA), 5-{4-[2-(methoxy-D3)-5-fluorophenyl]-2-hydroxy-4-methyl-2-(trifluoromethyl)pentylamino}isobenzofuran-1(3H)-one] | similarly repressed | did not result in any significant thymus apoptosis | does not induce | efficiently decreased | decreased | efficiently decreased |  |  | 
not decreased | increased | [2H]C([2H])([2H])Oc1ccc(F)cc1C(C)(C)CC(O)(CNc1ccc2c(c1)COC2=O)C(F)(F)F (centres unmarked) [CpdX-D3(eB), 5-{4-[2-(methoxy-D3)-5-fluorophenyl]-2-hydroxy-4-methyl-2-(trifluoromethyl)pentylamino}isobenzofuran-1(3H)-one] |  | did not result in any significant thymus apoptosis | does not induce |  |  |  |  | no such decrease | 
